US4332794A, “6"-Deoxydibekacin, 4",6"-dideoxydibekacin and 1-N-aminoacyl derivatives thereof, and the production of these new compounds” (Zaidan Hojin Biseibutsu Kagaku Kenkyu Kai, priority 1979, dated 1982)
Converted amounts (≈) assume the structure as drawn. Read-outs that look alike come from different tables or passages of the source.

Legend:
[1] = system: Pseudomonas aeruginosa B-13; test: MIC, serial dilution on nutrient agar; format: cell-based; conditions: B13, 18 h
Providencia Pv 16 = test: MIC, serial dilution on nutrient agar; format: cell-based; conditions: PV16, 18 h
[2] = system: Klebsiella pneumoniae 22 #3038; test: MIC, serial dilution on nutrient agar; format: cell-based; conditions: 18 h
intravenous LD50 in mice = conditions: mouse, in vivo, estimated
[3] = system: Pseudomonas aeruginosa H11; test: MIC, serial dilution on nutrient agar; format: cell-based
[4] = system: Corynebacterium bovis 1810; test: MIC, serial dilution on nutrient agar; format: cell-based; conditions: Corynebacterium bovis, 1810, 18 h
[5] = system: Bacillus subtilis PCI 219; test: MIC, serial dilution on nutrient agar; format: cell-based; conditions: PCI219, 37° C., 18 hours
[6] = system: Escherichia coli K-12 R 388; test: MIC, serial dilution on nutrient agar; format: cell-based; conditions: K12R388, 18 h
Escherichia coli NIHJ = test: MIC, serial dilution on nutrient agar; format: cell-based
Escherichia coli JR255 = test: microbe, parasite or virus in culture; format: cell-based; conditions: JR255, 18 h
[7] = system: Pseudomonas aeruginosa K-Ps102; test: MIC, serial dilution on nutrient agar; format: cell-based
Escherichia coli W677 = test: MIC, serial dilution on nutrient agar; format: cell-based
[8] = system: Pseudomonas aeruginosa No. 12; test: MIC, serial dilution on nutrient agar; format: cell-based
[9] = system: Pseudomonas aeruginosa H9; test: MIC, serial dilution on nutrient agar; format: cell-based; conditions: H9, 18 h
[10] = system: Escherichia coli K-12 LA 290 R55; test: microbe, parasite or virus in culture; format: cell-based; conditions: K12LA290R55, 18 h
[11] = system: Pseudomonas aeruginosa PST1; test: MIC, serial dilution on nutrient agar; format: cell-based; conditions: PST1, 18 h
[12] = system: Mycrococcus flavus FDA 16; test: MIC, serial dilution on nutrient agar; format: cell-based; conditions: 18 h
Escherichia coli K-12 R5 = test: microbe, parasite or virus in culture; format: cell-based; conditions: K12R5, 18 h
[13] = system: Bacillus cereus ATCC 10702; test: MIC, serial dilution on nutrient agar; format: cell-based
[14] = system: Pseudomonas aeruginosa 99; test: MIC, serial dilution on nutrient agar; format: cell-based; conditions: Pseudomonas aeruginosa, 99, 18 h
[15] = system: Pseudomonas aeruginosa TI-13; test: MIC, serial dilution on nutrient agar; format: cell-based; conditions: TI13, 18 h
Escherichia coli K-12 = test: MIC, serial dilution on nutrient agar; format: cell-based
Bacillus anthracis = test: microbe, parasite or virus in culture; format: cell-based; conditions: 18 h
[16] = system: Escherichia coli K-12 1410 R81; test: MIC, serial dilution on nutrient agar; format: cell-based; conditions: K121410R81, 18 h
[17] = system: Escherichia coli K-12 LA 290 R56; test: microbe, parasite or virus in culture; format: cell-based; conditions: K12LA290R56, 18 h
[18] = system: Bacillus subtilis NRRL B-558; test: MIC, serial dilution on nutrient agar; format: cell-based; conditions: NRRLB558, 37° C., 18 hours
[19] = system: Salmonella enteritidis 1891; test: MIC, serial dilution on nutrient agar; format: cell-based; conditions: Salmonella enterica
[20] = system: Escherichia coli K-12 ML 1410; test: MIC, serial dilution on nutrient agar; format: cell-based
Sarcina lutea PCI 1001 = test: MIC, serial dilution on nutrient agar; format: cell-based; conditions: Micrococcus luteus, PCI1001, 18 h
Proteus rettgeri GN311 = test: MIC, serial dilution on nutrient agar; format: cell-based; conditions: Providencia rettgeri, GN311, 18 h
[21] = system: Staphylococcus aureus APO1; test: MIC, serial dilution on nutrient agar; format: cell-based
[22] = system: Shigella dysenteriae JS11910; test: MIC, serial dilution on nutrient agar; format: cell-based; conditions: JS11910, 18 h
[23] = system: Escherichia coli K-12 LA 290 R64; test: MIC, serial dilution on nutrient agar; format: cell-based; conditions: K12LA290R64, 18 h
[24] = system: Pseudomonas aeruginosa ROS134/PU21; test: microbe, parasite or virus in culture; format: cell-based; conditions: ROS134/PU21, 18 h
oto-toxicity = conditions: compounds of this invention
[25] = system: Pseudomonas aeruginosa A3; test: MIC, serial dilution on nutrient agar; format: cell-based; conditions: A3, 18 h
[26] = system: Staphylococcus aureus Smith; test: MIC, serial dilution on nutrient agar; format: cell-based; conditions: 37° C., 18 hours
[27] = system: Mycobacterium smegmatis ATCC 607; test: MIC, serial dilution on nutrient agar; format: cell-based; conditions: Mycolicibacterium smegmatis
[28] = system: Staphylococcus epidermidis 109; test: MIC, serial dilution on nutrient agar; format: cell-based
[29] = system: Escherichia coli JR66/W677; test: MIC, serial dilution on nutrient agar; format: cell-based; conditions: JR66/W677, 18 h
[30] = nutrient agar, 37° C., 18 hours, read-out: MIC

Compound	MIC [1] [µg/mL]	MIC (Providencia Pv 16) [µg/mL]	MIC [2] [µg/mL]	MIC [4] [µg/mL]	MIC [5] [µg/mL]	MIC [6] [µg/mL]	MIC (Escherichia coli JR255) [µg/mL]	MIC [9] [µg/mL]	MIC [10] [µg/mL]	MIC [11] [µg/mL]	MIC [12] [µg/mL]	MIC (Escherichia coli K-12 R5) [µg/mL]	MIC [14] [µg/mL]	MIC [15] [µg/mL]	MIC (Bacillus anthracis) [µg/mL]	MIC [16] [µg/mL]	MIC [17] [µg/mL]	MIC [18] [µg/mL]	MIC (Sarcina lutea PCI 1001) [µg/mL]	MIC (Proteus rettgeri GN311) [µg/mL]	other results
C[C@@H]1C[C@H](N)[C@@H](O)[C@@H](O[C@@H]2[C@@H](O)[C@H](O[C@H]3O[C@H](CN)CC[C@H]3N)[C@@H](N)C[C@H]2N)O1 [4",6"-DDKB, 4",6"-dideoxydibekacin]	> 100	> 100	100 (≈ 238 µM)	50 (≈ 119 µM)	< 0.2	1.56 (≈ 3.72 µM)	100 (≈ 238 µM)	100 (≈ 238 µM)	100 (≈ 238 µM)	> 100	50 (≈ 119 µM)	> 100	> 100	100 (≈ 238 µM)	< 0.2	1.56 (≈ 3.72 µM)	50 (≈ 119 µM)	< 0.2	50 (≈ 119 µM)	3.13 (≈ 7.46 µM)	LD50 (intravenous LD50 in mice): > 60 mg/kg; MIC ([3]; H11, 18 h): 100 µg/mL (≈ 238 µM); MIC (Escherichia coli NIHJ; 18 h): 1.56 µg/mL (≈ 3.72 µM); MIC ([7]; KPS102, nutrient agar, 37° C., 18 hours, read-out: MIC): 25 µg/mL (≈ 59.6 µM); MIC (Escherichia coli W677; W677, 18 h): 0.78 µg/mL (≈ 1.86 µM); MIC ([8]; NO.12, nutrient agar, 37° C., 18 hours, read-out: MIC): 12.5 µg/mL (≈ 29.8 µM); MIC ([13]; ATCC10702, nutrient agar, 37° C., 18 hours, read-out: MIC): 6.25 µg/mL (≈ 14.9 µM); MIC (Escherichia coli K-12; K12, 18 h): 1.56 µg/mL (≈ 3.72 µM); MIC [19, 30]: 6.25 µg/mL (≈ 14.9 µM); MIC ([20]; K12ML1410, 18 h): 1.56 µg/mL (≈ 3.72 µM); MIC ([21]; APO1, 18 h): 3.13 µg/mL (≈ 7.46 µM); MIC [22]: 3.13 µg/mL (≈ 7.46 µM); MIC [23]: 25 µg/mL (≈ 59.6 µM); MIC [24]: > 100 µg/mL; oto-toxicity (oto-toxicity): low oto-toxicity; MIC [25]: 3.13 µg/mL (≈ 7.46 µM); MIC [26]: < 0.2 µg/mL; MIC ([27]; ATCC607, 18 h): 1.56 µg/mL (≈ 3.72 µM); MIC ([28]; Staphylococcus epidermidis, 109, 18 h): 3.13 µg/mL (≈ 7.46 µM); MIC [29]: 100 µg/mL (≈ 238 µM)
NC[C@@H]1CC[C@@H](N)[C@@H](O[C@H]2[C@H](O)[C@@H](O[C@H]3O[C@H](CO)[C@@H](O)[C@H](N)[C@H]3O)[C@H](N)C[C@@H]2N)O1 [DKB, 3',4'-dideoxykanamycin B, reference compound]	6.25 (≈ 13.8 µM)	> 100	100 (≈ 221 µM)	50 (≈ 111 µM)	< 0.2	1.56 (≈ 3.45 µM)	> 100	6.25 (≈ 13.8 µM)	100 (≈ 221 µM)	> 100	100 (≈ 221 µM)	> 100	50 (≈ 111 µM)	6.25 (≈ 13.8 µM)	< 0.2	1.56 (≈ 3.45 µM)	25 (≈ 55.4 µM)	< 0.2	100 (≈ 221 µM)	6.25 (≈ 13.8 µM)	MIC ([3]; H11, nutrient agar, 37° C., 18 hours, read-out: MIC): 12.5 µg/mL (≈ 27.7 µM); MIC (Escherichia coli NIHJ; [30]): 1.56 µg/mL (≈ 3.45 µM); MIC ([7]; KPS102, 18 h): 6.25 µg/mL (≈ 13.8 µM); MIC (Escherichia coli W677; W677, nutrient agar, 37° C., 18 hours, read-out: MIC): 1.56 µg/mL (≈ 3.45 µM); MIC ([8]; NO.12, 18 h): 6.25 µg/mL (≈ 13.8 µM); MIC ([13]; ATCC10702, 18 h): 3.13 µg/mL (≈ 6.93 µM); MIC (Escherichia coli K-12; K12, nutrient agar, 37° C., 18 hours, read-out: MIC): 1.56 µg/mL (≈ 3.45 µM); MIC ([19]; 18 h): 3.13 µg/mL (≈ 6.93 µM); MIC ([20]; K12ML1410, nutrient agar, 37° C., 18 hours, read-out: MIC): 1.56 µg/mL (≈ 3.45 µM); MIC ([21]; APO1, nutrient agar, 37° C., 18 hours, read-out: MIC): 1.56 µg/mL (≈ 3.45 µM); MIC [22]: 3.13 µg/mL (≈ 6.93 µM); MIC [23]: 25 µg/mL (≈ 55.4 µM); MIC [24]: > 100 µg/mL; MIC [25]: 3.13 µg/mL (≈ 6.93 µM); MIC [26]: < 0.2 µg/mL; MIC ([27]; ATCC607, nutrient agar, 37° C., 18 hours, read-out: MIC): 1.56 µg/mL (≈ 3.45 µM); MIC ([28]; Staphylococcus epidermidis, 109, nutrient agar, 37° C., 18 hours, read-out: MIC): 1.56 µg/mL (≈ 3.45 µM); MIC [29]: 100 µg/mL (≈ 221 µM)
